Test results reported in US10954228B2 (NATIONAL INSTITUTES OF HEALTH, UNITED STATES DEPARTMENT OF …, priority 2016, dated 2021).

target: Human LDHA (Homo sapiens (Human), UniProt P00338); test: human LDHA primary biochemical assay; conditions: biochemical LDHA inhibitory activity, assay of Example 1; activity level classes defined in nM
Description: This example describes a human LDHA primary biochemical assay employed in the characterization of a compound of formula (I) in an embodiment of the invention.
Test compounds were placed in a Greiner Bio-One (Monroe, N.C.) 1536-well black solid bottom assay plate. 200 millimolar (mM) Tris HCl, pH 7.4, 100 micromolar (μM) EDTA and 0.01% TWEEN-20™, final concentration, was used as the assay buffer. The LDHA reagent was 2 nanomolar (nM) Human LDHA (Meridian Life Science, Inc., Memphis, Tenn.), final concentration, in assay buffer. The substrate reagent was 0.06 mM NADH and 0.2 mM sodium pyruvate, final concentration, in assay buffer. The resazurin/diaphorase coupling reagent was 0.037 mM resazurin and 0.133 milligrams per milliliter (mg/mL) diaphorase, final concentration, in assay buffer. The inhibition of LDHA activity was measured by fluorescence emission.

Question: Which IC50 does the source give for “2-(5-([1,1′-bi(cyclopropan)]-2-yl)-4- (3-fluoro-4-sulfamoylbenzyl)- 3-(3-((5-methylthiophen-2- yl)ethynyl)phenyl)-1H-pyrazol-1- yl)thiazole-4-carboxylic acid [Compound 134]” here?
Answer: 100 to 1000 nM

Question: For Cc1ccc(C#Cc2cccc(-c3nn(-c4nc(C(=O)O)cs4)c(C(C)C4CC4)c3Cc3ccc([S+](N)(=O)[O-])c(F)c3)c2)s1 (stereo not shown) [Compound 116, 2-(5-(1-cyclopropylethyl)-4-(3-fluoro-4-sulfamoylbenzyl)-3-(3-((5-methylthiophen-2-yl)ethynyl)phenyl)-1H-pyrazol-1-yl)thiazole-4-carboxylic acid], which IC50 is on record?
Answer: 100 to 1000 nM

Question: For Cc1ccc(C#Cc2cccc(-c3nn(-c4nc(C(=O)O)cs4)c(C(C4CC4)C4CC4)c3Cc3ccc([S+](N)(=O)[O-])c(F)c3)c2)s1 [Compound 126, 2-(5-(dicyclopropylmethyl)-4-(3-fluoro-4-sulfamoylbenzyl)-3-(3-((5-methylthiophen-2-yl)ethynyl)phenyl)-1H-pyrazol-1-yl) thiazole-4-carboxylic acid], which IC50 is on record?
Answer: 1000 to 57000 nM

Question: For Cc1ccc(C#Cc2cccc(-c3nn(-c4nc(C(=O)O)cs4)c(C(C)(C)C4CC4)c3Cc3ccc([S+](N)(=O)[O-])c(F)c3)c2)s1 [Compound 128, 2-(5-(2-cyclopropylpropan-2-yl)-4-(3-fluoro-4-sulfamoylbenzyl)-3-(3-((5-methylthiophen-2-yl)ethynyl)phenyl)-1H-pyrazol-1-yl) thiazole-4-carboxylic acid], which IC50 is on record?
Answer: 100 to 1000 nM

Question: Cc1ccc(C#Cc2cccc(-c3nn(-c4nc(B(O)O)cs4)c(CC4CC4)c3Cc3ccc(S(N)(=O)=O)c(F)c3)c2)s1 [Compound 135, (2-(5-(cyclopropylmethyl)-4-(3-fluoro-4-sulfamoylbenzyl)-3-(3-((5-methylthiophen-2-yl)ethynyl)phenyl)-1H-pyrazol-1-yl)thiazol-4-yl)boronic acid] was tested. Which IC50 did it give?
Answer: 1000 to 57000 nM

Question: NS(=O)(=O)c1ccc(Cc2c(-c3ccc(F)c(-c4ccc(F)c(F)c4)c3)nn(-c3nc(C(=O)O)cs3)c2CC2CC2)cc1F [Compound 136, 2-(5-(cyclopropylmethyl)-4-(3-fluoro-4-sulfamoylbenzyl)-3-(3′,4′,6-trifluoro-[1,1′-biphenyl]-3-yl)-1H-pyrazol-1-yl)thiazole-4-carboxylic acid] was tested. Which IC50 did it give?
Answer: < 100 nM

Question: Which IC50 does the source give for CC(=O)c1cc(-c2nn(-c3nc(C(=O)O)cs3)c(CC3CC3)c2Cc2ccc(S(N)(=O)=O)c(F)c2)ccc1F [Compound 140, 2-(3-(3-acetyl-4-fluorophenyl)-5-(cyclopropylmethyl)-4-(3-fluoro-4-sulfamoylbenzyl)-1H-pyrazol-1-yl)thiazole-4-carboxylic acid] here?
Answer: < 100 nM

Question: How did the IC50 turn out when NS(=O)(=O)c1ccc(Cc2c(-c3ccc(F)c(C4=CCCO4)c3)nn(-c3nc(C(=O)O)cs3)c2CC2CC2)cc1F [Compound 148, 2-(5-(cyclopropylmethyl)-3-(3-(4,5-dihydrofuran-2-yl)-4-fluorophenyl)-4-(3-fluoro-4-sulfamoylbenzyl)-1H-pyrazol-1-yl)thiazole-4-carboxylic acid] was run?
Answer: < 100 nM

Question: For NS(=O)(=O)c1ccc(Cc2c(-c3ccc(F)c(NC(=O)c4ccccc4)c3)nn(-c3nc(C(=O)O)cs3)c2CC2CC2)cc1F [Compound 152, 2-(3-(3-benzamido-4-fluorophenyl)-5-(cyclopropylmethyl)-4-(3-fluoro-4-sulfamoylbenzyl)-1H-pyrazol-1-yl)thiazole-4-carboxylic acid], which IC50 is on record?
Answer: < 100 nM

Question: Which IC50 does the source give for N[S+](=O)([O-])c1ccc(Cc2c(-c3ccc(F)c(C(=O)N4CCCC4)c3)nn(-c3nc(C(=O)O)cs3)c2CC2CC2)cc1F [Compound 154] here?
Answer: < 100 nM

Question: CC(C)N1CC2(CN(c3cc(-c4nn(-c5nc(C(=O)O)cs5)c(CC5CC5)c4Cc4ccc(S(N)(=O)=O)c(F)c4)ccc3F)C2)C1 [Compound 158, 2-(5-(cyclopropylmethyl)-3-(4-fluoro-3-(6-isopropyl-2,6-diazaspiro[3.3]heptan-2-yl)phenyl)-4-(3-fluoro-4-sulfamoylbenzyl)-1H-pyrazol-1-yl)thiazole-4-carboxylic acid] was tested. Which IC50 did it give?
Answer: < 100 nM

Question: How did the IC50 turn out when NS(=O)(=O)c1ccc(Cc2c(-c3ccc(F)c(-c4ncc[nH]4)c3)nn(-c3nc(C(=O)O)cs3)c2CC2CC2)cc1F [Compound 159, 2-(5-(cyclopropylmethyl)-3-(4-fluoro-3-(1H-imidazol-2-yl)phenyl)-4-(3-fluoro-4-sulfamoylbenzyl)-1H-pyrazol-1-yl)thiazole-4-carboxylic acid] was run?
Answer: < 100 nM

Question: NS(=O)(=O)c1ccc(Cc2c(-c3ccc(F)c(-c4nc5ccccc5[nH]4)c3)nn(-c3nc(C(=O)O)cs3)c2CC2CC2)cc1F [Compound 160, 2-(3-(3-(1H-benzo[d]imidazol-2-yl)-4-fluorophenyl)-5-(cyclopropylmethyl)-4-(3-fluoro-4-sulfamoylbenzyl)-1H-pyrazol-1-yl)thiazole-4-carboxylic acid] was tested. Which IC50 did it give?
Answer: < 100 nM

Question: For Cc1ncc(-c2cc(-c3nn(-c4nc(C(=O)O)cs4)c(CC4CC4)c3Cc3ccc(S(N)(=O)=O)c(F)c3)ccc2F)[nH]1 [Compound 161, 2-(5-(cyclopropylmethyl)-3-(4-fluoro-3-(2-methyl-1H-imidazol-5-yl)phenyl)-4-(3-fluoro-4-sulfamoylbenzyl)-1H-pyrazol-1-yl)thiazole-4-carboxylic acid], which IC50 is on record?
Answer: < 100 nM

Question: Which IC50 does the source give for Cc1ccc(C#Cc2cccc(-c3nn(-c4nc(C(N)=O)cs4)c(CC4CC4)c3Cc3ccc(S(N)(=O)=O)c(F)c3)c2)s1 [Compound 163, 2-(5-(cyclopropylmethyl)-4-(3-fluoro-4-sulfamoylbenzyl)-3-(3-((5-methylthiophen-2-yl)ethynyl)phenyl)-1H-pyrazol-1-yl)thiazole-4-carboxamide] here?
Answer: 1000 to 57000 nM

Question: Cc1cc(-c2cccc(-c3nn(-c4nc(C(=O)O)cs4)c(CC4CC4)c3Cc3ccc(S(N)(=O)=O)c(F)c3)c2)ccc1Cl [Compound 170, 2-(3-(4′-chloro-3′-methyl-[1,1′-biphenyl]-3-yl)-5-(cyclopropylmethyl)-4-(3-fluoro-4-sulfamoylbenzyl)-1H-pyrazol-1-yl)thiazole-4-carboxylic acid] was tested. Which IC50 did it give?
Answer: 1000 to 57000 nM

Question: With NS(=O)(=O)c1ccc(Cc2c(-c3cccc(-c4ccc(C5CC5)c(F)c4)c3)nn(-c3nc(C(=O)O)cs3)c2CC2CC2)cc1F [Compound 171, 2-(3-(4′-cyclopropyl-3′-fluoro-[1,1′-biphenyl]-3-yl)-5-(cyclopropylmethyl)-4-(3-fluoro-4-sulfamoylbenzyl)-1H-pyrazol-1-yl)thiazole-4-carboxylic acid] as the molecule, how does the IC50 read?
Answer: 1000 to 57000 nM

Question: With COc1ccc(-c2cccc(-c3nn(-c4nc(C(=O)O)cs4)c(CC4CC4)c3Cc3ccc(S(N)(=O)=O)c(F)c3)c2)cc1Cl [Compound 172, 2-(3-(3′-chloro-4′-methoxy-[1,1′-biphenyl]-3-yl)-5-(cyclopropylmethyl)-4-(3-fluoro-4-sulfamoylbenzyl)-1H-pyrazol-1-yl)thiazole-4-carboxylic acid] as the molecule, how does the IC50 read?
Answer: 100 to 1000 nM

Question: Which IC50 does the source give for Cc1ccc(C#Cc2cccc(-c3nn(-c4nc(C(=O)NS(C)(=O)=O)cs4)c(CC4CC4)c3Cc3ccc(S(N)(=O)=O)c(F)c3)c2)s1 [Compound 180, 2-(5-(cyclopropylmethyl)-4-(3-fluoro-4-sulfamoylbenzyl)-3-(3-((5-methylthiophen-2-yl)ethynyl)phenyl)-1H-pyrazol-1-yl)-N-(methylsulfonyl)thiazole-4-carboxamide] here?
Answer: 1000 to 57000 nM

Question: How did the IC50 turn out when Cc1ccc(C#Cc2cccc(-c3nn(-c4nc(CO)cs4)c(CC4CC4)c3Cc3ccc(S(N)(=O)=O)c(F)c3)c2)s1 [Compound 181, 4-((5-(cyclopropylmethyl)-1-(4-(hydroxymethyl)thiazol-2-yl)-3-(3-((5-methylthiophen-2-yl)ethynyl)phenyl)-1H-pyrazol-4-yl)methyl)-2-fluorobenzenesulfonamide] was run?
Answer: > 57000 nM

Question: How did the IC50 turn out when CCc1cc(-c2cccc(-c3nn(-c4nc(C(=O)O)cs4)c(CC4CC4)c3Cc3ccc(S(N)(=O)=O)c(F)c3)c2)ccc1OC [Compound 182, 2-(5-(cyclopropylmethyl)-3-(3′-ethyl-4′-methoxy-[1,1′-biphenyl]-3-yl)-4-(3-fluoro-4-sulfamoylbenzyl)-1H-pyrazol-1-yl)thiazole-4-carboxylic acid] was run?
Answer: 100 to 1000 nM

Question: NS(=O)(=O)c1ccc(Cc2c(-c3cccc(-c4ccc(C5CC5)cc4)c3)nn(-c3nc(C(=O)O)cs3)c2CC2CC2)cc1F [Compound 183, 2-(3-(4′-cyclopropyl-[1,1′-biphenyl]-3-yl)-5-(cyclopropylmethyl)-4-(3-fluoro-4-sulfamoylbenzyl)-1H-pyrazol-1-yl)thiazole-4-carboxylic acid] was tested. Which IC50 did it give?
Answer: < 100 nM

Question: NS(=O)(=O)c1ccc(Cc2c(-c3cccc(-c4ccc(C5CCC5)cc4)c3)nn(-c3nc(C(=O)O)cs3)c2CC2CC2)cc1F [Compound 184, 2-(3-(4′-cyclobutyl-[1,1′-biphenyl]-3-yl)-5-(cyclopropylmethyl)-4-(3-fluoro-4-sulfamoylbenzyl)-1H-pyrazol-1-yl)thiazole-4-carboxylic acid] was tested. Which IC50 did it give?
Answer: 100 to 1000 nM

Question: For Cc1cc(-c2cc(-c3nn(-c4nc(C(=O)O)cs4)c(CC4CC4)c3Cc3ccc(S(N)(=O)=O)c(F)c3)ccc2F)ccc1Cl [Compound 185, 2-(3-(4′-chloro-6-fluoro-3′-methyl-[1,1′-biphenyl]-3-yl)-5-(cyclopropylmethyl)-4-(3-fluoro-4-sulfamoylbenzyl)-1H-pyrazol-1-yl)thiazole-4-carboxylic acid], which IC50 is on record?
Answer: 100 to 1000 nM

Question: How did the IC50 turn out when CCc1cc(-c2cc(-c3nn(-c4nc(C(=O)O)cs4)c(CC4CC4)c3Cc3ccc(S(N)(=O)=O)c(F)c3)ccc2F)ccc1OC [Compound 186, 2-(5-(cyclopropylmethyl)-3-(3′-ethyl-6-fluoro-4′-methoxy-[1,1′-biphenyl]-3-yl)-4-(3-fluoro-4-sulfamoylbenzyl)-1H-pyrazol-1-yl)thiazole-4-carboxylic acid] was run?
Answer: 100 to 1000 nM
